The structures appear in SMILES notation. Activity calls are given as the source filed them.

The values that follow come from ChEMBL document CHEMBL1201862, “PubChem BioAssay data set” (2004).

In assay [1] the target is Sphingosine 1-phosphate receptor 4 (Homo sapiens, UniProt O95977). Kind of assay: Late-stage fluorescence dose response cell-based assay to identify agonists of the Sphingosine 1-Phosphate Receptor 4 (S1P4): purchased compounds EC50. [Related pubchem assays (depositor defined):AID1509, AID1523, AID1563, AID1686, AID1701, AID1801]. Type of assay: functional.
Sphingosine 1-phosphate receptor 4, sequence (O95977 whole entry): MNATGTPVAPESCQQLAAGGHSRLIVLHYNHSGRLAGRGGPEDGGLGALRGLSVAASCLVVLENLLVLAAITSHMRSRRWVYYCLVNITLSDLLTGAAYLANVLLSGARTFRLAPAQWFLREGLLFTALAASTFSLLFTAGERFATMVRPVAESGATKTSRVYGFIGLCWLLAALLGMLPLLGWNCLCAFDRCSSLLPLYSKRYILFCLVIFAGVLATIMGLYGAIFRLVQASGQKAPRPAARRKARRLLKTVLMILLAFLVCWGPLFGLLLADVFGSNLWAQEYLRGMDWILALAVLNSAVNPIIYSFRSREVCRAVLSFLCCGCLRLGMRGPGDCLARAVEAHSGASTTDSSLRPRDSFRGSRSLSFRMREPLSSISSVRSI
Another assay deals with T1, CAAX prenyl protease 2 (Saccharomyces cerevisiae S288c, UniProt Q03530).
T1 sequence (Q03530 whole entry): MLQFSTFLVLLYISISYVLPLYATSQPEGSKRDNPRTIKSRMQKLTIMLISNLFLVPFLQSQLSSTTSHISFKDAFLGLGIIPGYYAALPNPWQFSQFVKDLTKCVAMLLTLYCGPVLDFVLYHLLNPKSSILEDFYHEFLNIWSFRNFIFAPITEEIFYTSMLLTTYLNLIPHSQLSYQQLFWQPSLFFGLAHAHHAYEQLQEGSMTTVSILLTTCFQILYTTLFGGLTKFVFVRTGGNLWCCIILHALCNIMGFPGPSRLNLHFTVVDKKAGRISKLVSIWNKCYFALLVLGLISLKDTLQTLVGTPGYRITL
Type of assay: biochemical.

The next assay addresses Trypsin (Sus scrofa, UniProt P00761). Nature of the assay: trypsin protease activity blockade – biochemical, quenched peptide fluorescence, cherry-pick, selectivity assay for Rce1 protease inhibitor project, dose response (AID 488789).
In another assay the target is CAAX prenyl protease 1 (Saccharomyces cerevisiae S288c, UniProt P47154). Nature of the assay: yeast CAAX protease Ste24 inhibition – biochemical, S. cerevisiae, plate reader, cherry-pick, dose response (AID 488815).
CAAX prenyl protease 1, sequence (P47154 whole entry): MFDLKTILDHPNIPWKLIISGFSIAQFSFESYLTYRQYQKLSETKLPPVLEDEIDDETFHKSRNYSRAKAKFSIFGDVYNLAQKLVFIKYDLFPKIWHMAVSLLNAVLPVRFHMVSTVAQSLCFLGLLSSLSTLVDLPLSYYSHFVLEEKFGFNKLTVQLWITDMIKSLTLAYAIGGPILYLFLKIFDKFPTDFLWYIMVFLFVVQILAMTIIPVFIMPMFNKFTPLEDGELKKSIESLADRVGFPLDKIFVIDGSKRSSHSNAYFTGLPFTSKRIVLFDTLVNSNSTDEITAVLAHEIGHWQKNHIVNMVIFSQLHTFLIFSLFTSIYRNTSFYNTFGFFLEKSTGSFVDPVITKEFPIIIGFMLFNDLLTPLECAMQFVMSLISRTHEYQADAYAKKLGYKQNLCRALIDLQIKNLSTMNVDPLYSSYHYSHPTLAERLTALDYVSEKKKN
For another assay, the target named is Ephrin type-A receptor 4 (Mus musculus, UniProt Q03137). Nature of the assay: EphA4 ligand-binding antagonists – biochemical, colorimetric, mouse EphA4, primary screen (AID 689). The format is functional.
A further assay concerns the target Perilipin-1/ABHD5 (Homo sapiens, UniProt O60240+Q8WTS1). Nature of the assay: Luminescence-based biochemical high throughput dose response assay for inhibitors of the interaction of the lipase co-activator protein, abhydrolase domain containing 5 (ABHD5) with perilipin-1 (PLIN1) (2K validation set). [Related pubchem assays (depositor defined):AID493027, AID493057].

For assay [2], the target named is 1-acylglycerol-3-phosphate O-acyltransferase ABHD5/Perilipin-5 (Homo sapiens, UniProt Q00G26+Q8WTS1). Nature of the assay: Luminescence-based biochemical high throughput dose response assay for inhibitors of the interaction of the lipase co-activator protein, abhydrolase domain containing 5 (ABHD5) with perilipin-5 (MLDP; PLIN5) (2K validation set). [Related pubchem assays (depositor defined):AID493035, AID493241].
1-acylglycerol-3-phosphate O-acyltransferase ABHD5/Perilipin-5, sequence (Q00G26 whole entry, the tested form may be a part): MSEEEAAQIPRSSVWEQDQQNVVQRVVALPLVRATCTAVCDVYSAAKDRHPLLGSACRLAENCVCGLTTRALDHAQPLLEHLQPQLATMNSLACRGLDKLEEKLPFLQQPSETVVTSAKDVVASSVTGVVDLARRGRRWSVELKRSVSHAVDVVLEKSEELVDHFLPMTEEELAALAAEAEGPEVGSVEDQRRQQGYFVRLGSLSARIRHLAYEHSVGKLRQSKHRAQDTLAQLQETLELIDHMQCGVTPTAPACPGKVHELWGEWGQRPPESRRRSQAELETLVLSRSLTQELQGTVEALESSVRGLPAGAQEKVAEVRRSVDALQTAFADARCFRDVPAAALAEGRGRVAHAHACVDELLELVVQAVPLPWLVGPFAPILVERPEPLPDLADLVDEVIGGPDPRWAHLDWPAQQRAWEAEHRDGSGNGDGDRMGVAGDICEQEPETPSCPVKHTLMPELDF
1-acylglycerol-3-phosphate O-acyltransferase ABHD5/Perilipin-5, sequence (Q8WTS1 whole entry, the tested form may be a part): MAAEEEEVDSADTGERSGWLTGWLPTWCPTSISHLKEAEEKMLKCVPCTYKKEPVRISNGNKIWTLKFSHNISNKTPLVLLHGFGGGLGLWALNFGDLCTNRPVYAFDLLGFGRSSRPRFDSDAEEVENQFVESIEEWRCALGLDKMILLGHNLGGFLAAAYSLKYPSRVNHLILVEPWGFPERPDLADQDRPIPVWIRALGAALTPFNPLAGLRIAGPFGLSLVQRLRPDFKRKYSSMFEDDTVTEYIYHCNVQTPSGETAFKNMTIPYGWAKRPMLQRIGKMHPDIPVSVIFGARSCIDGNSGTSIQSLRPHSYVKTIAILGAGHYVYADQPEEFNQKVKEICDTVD

The target in assay [3] is T2, Tyrosine-protein phosphatase non-receptor type 7 (Homo sapiens, UniProt P35236).
T2 sequence (P35236 whole entry): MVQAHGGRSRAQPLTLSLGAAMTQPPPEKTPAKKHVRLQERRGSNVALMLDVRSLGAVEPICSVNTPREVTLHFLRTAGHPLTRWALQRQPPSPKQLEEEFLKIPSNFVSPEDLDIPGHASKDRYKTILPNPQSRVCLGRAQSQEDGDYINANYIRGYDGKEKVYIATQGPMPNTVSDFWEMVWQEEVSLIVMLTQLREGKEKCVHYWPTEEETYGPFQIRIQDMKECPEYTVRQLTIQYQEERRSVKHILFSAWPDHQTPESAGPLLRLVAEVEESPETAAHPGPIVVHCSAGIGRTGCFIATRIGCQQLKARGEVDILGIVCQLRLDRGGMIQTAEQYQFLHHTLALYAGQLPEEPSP
Kind of assay: SAR analysis of chemical inhibitors of HePTP using a Fluorescent assay - Set 2. [Related pubchem assays (depositor defined):AID1059, AID1077, AID1661, AID2085, AID521]. Type of assay: functional.

Assay [4] deals with Dual specificity protein phosphatase 3 (Homo sapiens, UniProt P51452). Nature of the assay: SAR VHR1 Fluorescent Assay for In Vitro dose response studies Set 2. [Related pubchem assays (depositor defined):AID1654, AID1661, AID1878]. The format is functional.
For assay [5], the target named is Phosphoethanolamine/phosphocholine phosphatase (Homo sapiens, UniProt Q8TCT1). Kind of assay: SAR assay for compounds that inhibit PHOSPHO1. [Related pubchem assays (depositor defined):AID1545, AID1565, AID1574].
Phosphoethanolamine/phosphocholine phosphatase, sequence (Q8TCT1 whole entry): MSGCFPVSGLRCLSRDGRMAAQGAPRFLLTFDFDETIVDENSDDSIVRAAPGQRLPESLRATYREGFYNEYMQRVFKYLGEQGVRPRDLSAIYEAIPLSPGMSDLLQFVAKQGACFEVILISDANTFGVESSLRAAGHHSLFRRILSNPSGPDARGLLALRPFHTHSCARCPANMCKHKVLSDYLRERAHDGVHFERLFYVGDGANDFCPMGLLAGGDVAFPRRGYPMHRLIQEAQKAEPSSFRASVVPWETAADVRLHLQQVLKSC
In assay [6] the target is T3, Mannose-6-phosphate isomerase (Homo sapiens, UniProt P34949).
T3 sequence (P34949 whole entry): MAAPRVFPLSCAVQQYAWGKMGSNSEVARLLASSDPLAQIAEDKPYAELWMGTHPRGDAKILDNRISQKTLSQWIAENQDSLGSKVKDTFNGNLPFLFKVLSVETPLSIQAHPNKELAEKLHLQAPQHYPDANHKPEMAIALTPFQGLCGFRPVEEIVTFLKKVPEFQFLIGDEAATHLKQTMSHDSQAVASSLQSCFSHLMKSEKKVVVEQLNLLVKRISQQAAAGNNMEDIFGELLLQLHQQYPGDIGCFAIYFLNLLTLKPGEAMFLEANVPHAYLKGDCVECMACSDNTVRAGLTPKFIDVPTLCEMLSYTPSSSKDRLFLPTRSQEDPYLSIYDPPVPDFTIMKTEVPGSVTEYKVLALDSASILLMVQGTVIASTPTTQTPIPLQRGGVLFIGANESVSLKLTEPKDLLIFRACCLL
Nature of the assay: phosphomannose isomerase inhibition – biochemical, fluorescence intensity, confirmation (AID 1535).

The target in the next assay is Phosphomannomutase 2 (Homo sapiens, UniProt O15305). Kind of assay: Counter screen SAR assay for PMM2 inhibitors via a fluorescence intensity assay. [Related pubchem assays (depositor defined):AID1545, AID1574]. (The purpose of a counterscreen is to sort out artefacts and off-target activity.)
The target in assay [7] is T4, Kappa-type opioid receptor (Homo sapiens, UniProt P41145). Type of assay: functional.
T4 sequence (P41145 whole entry): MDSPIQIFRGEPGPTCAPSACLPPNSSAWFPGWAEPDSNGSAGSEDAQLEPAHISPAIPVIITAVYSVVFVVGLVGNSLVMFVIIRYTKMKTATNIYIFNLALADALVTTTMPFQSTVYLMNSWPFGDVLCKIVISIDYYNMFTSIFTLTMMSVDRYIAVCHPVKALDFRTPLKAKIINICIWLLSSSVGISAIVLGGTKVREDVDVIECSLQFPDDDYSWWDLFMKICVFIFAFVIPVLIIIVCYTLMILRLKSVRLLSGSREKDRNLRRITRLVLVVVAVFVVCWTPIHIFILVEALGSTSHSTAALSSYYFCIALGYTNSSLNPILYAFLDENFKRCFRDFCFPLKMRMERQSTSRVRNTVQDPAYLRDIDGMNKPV
Assay [8] concerns the target 72 kDa type IV collagenase (Homo sapiens, UniProt P08253). Nature of the assay: Dose Response validation of uHTS RPN11 inhibitor hits using a MMP-2 Fluorescence assay. Type of assay: functional.
For a further assay, the target named is Hexokinase-1 (Homo sapiens, UniProt P19367). Nature of the assay: HK1 enzyme activation by HKDC1 hits – biochemical, selectivity assay for HKDC1 activator project, dose response (AID 504762). The format is functional.
Hexokinase-1, sequence (P19367 whole entry): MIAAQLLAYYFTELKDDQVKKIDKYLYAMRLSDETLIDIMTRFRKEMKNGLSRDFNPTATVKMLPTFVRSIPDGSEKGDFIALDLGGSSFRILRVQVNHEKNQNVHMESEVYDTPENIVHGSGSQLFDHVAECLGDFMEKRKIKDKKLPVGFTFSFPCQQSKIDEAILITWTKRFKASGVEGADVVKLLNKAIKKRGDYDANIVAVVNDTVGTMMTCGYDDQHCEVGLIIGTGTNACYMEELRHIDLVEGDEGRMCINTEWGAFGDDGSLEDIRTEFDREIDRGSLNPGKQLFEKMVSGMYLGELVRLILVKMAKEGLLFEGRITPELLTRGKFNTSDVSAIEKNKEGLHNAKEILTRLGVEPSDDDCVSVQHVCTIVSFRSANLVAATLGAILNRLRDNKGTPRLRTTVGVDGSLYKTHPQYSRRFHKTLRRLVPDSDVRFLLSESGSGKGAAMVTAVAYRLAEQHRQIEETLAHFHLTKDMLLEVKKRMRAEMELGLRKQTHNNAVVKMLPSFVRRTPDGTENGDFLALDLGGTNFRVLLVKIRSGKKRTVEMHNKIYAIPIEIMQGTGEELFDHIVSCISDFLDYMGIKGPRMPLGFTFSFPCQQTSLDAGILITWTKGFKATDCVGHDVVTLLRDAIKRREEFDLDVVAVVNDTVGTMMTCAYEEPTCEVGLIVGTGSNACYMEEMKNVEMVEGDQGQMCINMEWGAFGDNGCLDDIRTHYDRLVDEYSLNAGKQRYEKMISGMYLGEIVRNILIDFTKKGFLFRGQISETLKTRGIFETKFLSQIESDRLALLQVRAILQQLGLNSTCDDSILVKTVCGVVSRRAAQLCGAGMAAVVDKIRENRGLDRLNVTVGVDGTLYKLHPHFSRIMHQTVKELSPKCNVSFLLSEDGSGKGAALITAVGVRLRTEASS
The target in assay [9] is T5, Beta-galactosidase (Escherichia coli, UniProt Q8VNN2). Type of assay: functional.
T5 sequence (Q8VNN2 whole entry): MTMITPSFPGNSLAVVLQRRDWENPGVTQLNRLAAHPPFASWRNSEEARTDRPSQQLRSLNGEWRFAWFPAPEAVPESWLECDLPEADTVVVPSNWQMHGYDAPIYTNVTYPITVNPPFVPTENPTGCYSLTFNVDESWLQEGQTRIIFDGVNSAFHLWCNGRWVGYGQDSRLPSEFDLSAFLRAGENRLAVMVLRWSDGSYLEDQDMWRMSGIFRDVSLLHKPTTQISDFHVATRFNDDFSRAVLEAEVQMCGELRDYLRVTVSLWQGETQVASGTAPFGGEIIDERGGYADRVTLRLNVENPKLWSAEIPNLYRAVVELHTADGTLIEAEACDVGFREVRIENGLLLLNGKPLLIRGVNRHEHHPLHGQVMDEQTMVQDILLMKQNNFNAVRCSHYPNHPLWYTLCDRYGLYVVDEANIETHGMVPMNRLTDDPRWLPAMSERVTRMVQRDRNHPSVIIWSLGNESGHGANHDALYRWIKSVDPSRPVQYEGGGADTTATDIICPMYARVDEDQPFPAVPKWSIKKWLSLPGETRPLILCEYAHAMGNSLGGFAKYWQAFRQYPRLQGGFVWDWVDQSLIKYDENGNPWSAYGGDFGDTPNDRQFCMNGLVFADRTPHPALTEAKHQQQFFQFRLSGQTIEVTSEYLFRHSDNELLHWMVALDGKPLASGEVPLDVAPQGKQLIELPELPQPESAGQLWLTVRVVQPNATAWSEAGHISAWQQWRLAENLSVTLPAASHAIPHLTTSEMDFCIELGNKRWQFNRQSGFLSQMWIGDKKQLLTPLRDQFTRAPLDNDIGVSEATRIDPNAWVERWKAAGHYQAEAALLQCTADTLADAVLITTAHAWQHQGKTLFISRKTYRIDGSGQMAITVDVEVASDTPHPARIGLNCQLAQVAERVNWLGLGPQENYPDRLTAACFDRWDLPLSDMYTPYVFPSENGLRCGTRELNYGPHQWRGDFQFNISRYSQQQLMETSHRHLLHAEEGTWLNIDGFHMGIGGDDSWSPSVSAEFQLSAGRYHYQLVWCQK
The target in assay [10] is 26S proteasome non-ATPase regulatory subunit 14 (Homo sapiens, UniProt O00487). Kind of assay: inhibition of proteasome subunit RPN11 – biochemical, fluorescence polarization, uHTS hits, confirmation (AID 602368). Type of assay: functional. (Fluorescence polarisation rises when a labelled molecule tumbles more slowly, as on binding a larger partner.)
Assay [11] deals with T6, Type-1 angiotensin II receptor (Homo sapiens, UniProt P30556).
T6 sequence (P30556 whole entry): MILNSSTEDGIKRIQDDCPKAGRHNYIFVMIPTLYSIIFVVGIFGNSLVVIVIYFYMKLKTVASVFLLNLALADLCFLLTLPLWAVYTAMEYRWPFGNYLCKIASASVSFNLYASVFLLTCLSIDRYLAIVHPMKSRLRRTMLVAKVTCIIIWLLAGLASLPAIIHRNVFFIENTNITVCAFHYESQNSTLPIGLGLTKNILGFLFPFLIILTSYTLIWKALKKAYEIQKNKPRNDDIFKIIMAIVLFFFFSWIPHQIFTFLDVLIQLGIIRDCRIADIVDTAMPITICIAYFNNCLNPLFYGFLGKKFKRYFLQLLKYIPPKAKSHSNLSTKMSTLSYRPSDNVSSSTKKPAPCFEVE
Kind of assay: antagonism of angiotensin II type 1 receptor – cell-based, uHTS hits, selectivity assay for APJ receptor antagonist project, dose response (AID 463214).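 Note: antagonist potency against angiotensin II stimulated AT1 response.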 The format is functional.

For the next assay, the target named is Protein Wnt-3a (Mus musculus, UniProt P27467). Nature of the assay: antagonism of Wnt3a pathway luciferase reporter – Wnt-LIGHT cells, luminescence, selectivity assay for Gli-SUFU antagonist project, dose response (AID 651570).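 Note: Wnt-LIGHT reporter cells stimulated with conditioned medium from Wnt3a-producing cells.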 The note with it: read-out: IC50_Mean. The format is functional. (In general: Reporter assays use an easily measured gene product as a stand-in for the process of interest.)
Protein Wnt-3a, sequence (P27467 whole entry): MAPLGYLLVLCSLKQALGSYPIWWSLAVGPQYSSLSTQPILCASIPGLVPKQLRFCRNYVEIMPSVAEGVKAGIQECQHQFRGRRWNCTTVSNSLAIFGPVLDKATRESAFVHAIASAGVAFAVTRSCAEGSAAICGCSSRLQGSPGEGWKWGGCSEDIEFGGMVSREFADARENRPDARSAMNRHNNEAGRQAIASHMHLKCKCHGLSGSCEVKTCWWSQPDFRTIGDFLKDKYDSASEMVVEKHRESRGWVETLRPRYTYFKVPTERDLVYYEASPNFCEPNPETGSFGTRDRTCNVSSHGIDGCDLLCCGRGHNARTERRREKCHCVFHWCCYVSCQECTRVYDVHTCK

Assay [12] can be described thus: NIH3T3 cell viability loss – ATP luminescence, mouse fibroblasts, counter-screen, dose response (AID 2010).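 Note: cells exposed to compound for about 90 hours before reading.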 Type of assay: functional, cell-based.
Assay [13] in a line: Trypanosoma cruzi growth suppression in host cells – NIH3T3 host cells, beta-gal luminescence, confirmation (AID 2044).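 Note: intracellular parasites grown in NIH/3T3 mouse fibroblasts as host cells; luminescent beta-galactosidase reporter signal from transgenic T. cruzi replicating inside host cells; inhibitors lower the luminescence signal.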 Type of assay: functional, cell-based.
Another assay deals with T7, Hexokinase HKDC1 (Homo sapiens, UniProt Q2TB90).
T7 sequence (Q2TB90 whole entry): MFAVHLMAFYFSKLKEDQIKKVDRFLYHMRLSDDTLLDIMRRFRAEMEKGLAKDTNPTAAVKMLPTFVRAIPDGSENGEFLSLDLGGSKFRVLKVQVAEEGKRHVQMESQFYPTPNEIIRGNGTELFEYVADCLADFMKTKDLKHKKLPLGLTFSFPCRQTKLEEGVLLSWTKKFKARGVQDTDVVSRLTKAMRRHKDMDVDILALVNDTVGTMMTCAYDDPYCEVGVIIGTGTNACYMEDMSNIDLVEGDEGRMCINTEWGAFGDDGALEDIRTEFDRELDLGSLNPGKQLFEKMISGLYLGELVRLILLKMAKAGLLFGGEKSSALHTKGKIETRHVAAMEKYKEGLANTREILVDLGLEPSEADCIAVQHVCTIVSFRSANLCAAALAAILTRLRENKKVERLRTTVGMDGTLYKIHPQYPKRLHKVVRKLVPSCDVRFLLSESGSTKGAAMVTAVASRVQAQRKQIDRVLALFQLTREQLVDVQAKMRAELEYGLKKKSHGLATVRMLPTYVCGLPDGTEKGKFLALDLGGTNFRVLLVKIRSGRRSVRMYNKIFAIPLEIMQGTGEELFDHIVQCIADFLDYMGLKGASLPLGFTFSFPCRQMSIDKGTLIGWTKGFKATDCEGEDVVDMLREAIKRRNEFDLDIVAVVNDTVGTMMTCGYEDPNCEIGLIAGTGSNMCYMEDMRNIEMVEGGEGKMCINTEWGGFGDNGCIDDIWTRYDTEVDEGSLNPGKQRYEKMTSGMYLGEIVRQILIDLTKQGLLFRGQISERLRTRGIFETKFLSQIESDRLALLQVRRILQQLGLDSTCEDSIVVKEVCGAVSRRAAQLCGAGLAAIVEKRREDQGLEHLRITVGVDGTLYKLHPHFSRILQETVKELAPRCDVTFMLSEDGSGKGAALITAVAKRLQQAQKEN
Nature of the assay: activation of HKDC1 glucose phosphorylation – biochemical, W721R variant, dose response (AID 504730). The format is functional.

Assay [14] deals with T4, Kappa-type opioid receptor. Type of assay: functional. The source holds these as a separate data set.
For a further assay, the target named is Prothrombin (Bos taurus, UniProt P00735). Nature of the assay: thrombin protease inhibitors – biochemical, fluorescence polarization, uHTS hits, dose response (AID 602369). Type of assay: functional.
Assay [15] has as its target T5, Beta-galactosidase. Nature of the assay: PubChem AID 485352. Type of assay: functional.

Trypsin, sequence (P00761 whole entry): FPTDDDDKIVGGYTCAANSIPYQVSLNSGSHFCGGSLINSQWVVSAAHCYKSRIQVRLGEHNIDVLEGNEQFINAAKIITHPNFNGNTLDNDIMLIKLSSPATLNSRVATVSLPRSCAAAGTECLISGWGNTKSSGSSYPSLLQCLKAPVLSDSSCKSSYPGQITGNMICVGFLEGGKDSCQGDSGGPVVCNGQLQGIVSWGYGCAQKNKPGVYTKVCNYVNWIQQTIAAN

The term EC50 denotes the concentration needed to bring the measured effect to its halfway point. Consider `Cc1ccc(OCC(=O)Nc2ccc(Cl)cc2)c([N+](=O)[O-])n1`, for which the EC50 in [1] was > 50 µM (inactive).
In general, AC50 refers to the concentration giving half of the maximal activity seen. For the compound `O=C(O)c1ccc(CN(c2ccccn2)S(=O)(=O)c2ccccc2)cc1`, the concentration at half-maximal activity (AC50) on CAAX prenyl protease 2 is 22 µM (active); on Trypsin, 16.6 µM (active); at CAAX prenyl protease 1, 3.92 µM (active). In addition, at Ephrin type-A receptor 4, the IC50 is given as > 100 µM (not active).
For `CC1(c2ccccc2)CC(C)(C)N2C(=O)C(=O)c3cccc1c32` (stereo not given), the IC50 on Perilipin-1/ABHD5 is 19 µM (inactive); in assay [2], 21.7 µM (inactive).
With `Oc1ccc(C(=S)NCc2ccc(F)c(C(F)(F)F)c2)cc1`, the IC50 is 30.9 µM (active) in assay [3] and 40.9 µM (active) in assay [4].
With `O=c1c2ccc([N+](=O)[O-])cc2sn1-c1cc(C(F)(F)F)ccc1Cl`, the IC50 in assay [5] is 0.252 µM (active); in [6], > 50 µM (inactive); at Phosphomannomutase 2, > 100 µM (inactive).
Regarding `CC(=O)/C(=N\Nc1ccc(Cl)cc1Cl)Sc1cccc2cccnc12`, the IC50 is over 32 µM in [7]; > 100 µM (inactive) in [8]; 32.2 µM (active) in [10]; 10.6 µM (active) in assay [11]; 11.4 µM (active) on Protein Wnt-3a; 9.32 µM (active) in assay [14]. Also, the IC50 on Prothrombin is > 100 µM (inactive). In addition, the EC50 at Hexokinase-1 was > 80 µM (inactive); on Beta-galactosidase [9], > 31.5 µM (inactive); in assay [12], 26.7 µM (active); in assay [13], 0.289 µM (active); on Hexokinase HKDC1, 15.5 µM (active); on Beta-galactosidase [15] it was > 40 µM (inactive).
